Patent US20050112573A1, “Method of detecting toxic substance” (priority 2001, published 2005)

Tested on: yeast genes (level of expressed mRNA)
Experiment: DNA chip analysis of expressed mRNA of yeast genes after 2 h culture with a toxic chemical substance
Format: cell-based, Saccharomyces cerevisiae S288C
Settings: for The level of expressed mRNA in the presence of chemical substance/ (ratio to absence of chemical substance): stress protein genes, DNA chip
Experimental: Yeast (Saccharomyces cerevtisiae S288C (α SUC2mal mel gap2 CUP1)) were cultured at 25° C. on YPD medium (yeast extract 1%, polypepton 2%, glucose 2%). One of toxic chemical substances was added to the cell at logarithmic growth phase, and the cell was further cultured for two hours. Cell was cultured without any chemical substance in the same condition, and was used as control. Concentrations of the chemical substances were defined to inhibit the growth of the yeast but not lead to death.
After the completion of cultivation, the culture was centrifuged to collect the cells. To the cells, sodium acetate buffer (50 mM sodium acetate, 10 mM EDTA, 1% SDS) was added, and the mixture was shaken at 65° C. for five minutes, followed by returning to room temperature, and obtaining the supernatant, which procedure was repeated two times. To the supernatant, ½ amount of a solution of phenol/chloroform was added, and the mixture was centrifuged to give a supernatant, which was added with an equal amount of chloroform, and the mixture was centrifuged to give a supernatant. To the supernatant, an equal amount of isopropanol containing 0.3 M sodium acetate was added, and the mixture was allowed to stand at room temperature for 30 minutes, after which the mixture was centrifuged to give a sediment of the whole RNAs. Seventy % ethanol was added to the sediment, and the mixture was again centrifuged to give a sediment, which was then dried and dissolved in water. mRNA was isolated from the whole RNAs as followings. In view of the fact that a poly A chain is attached to the 3′ terminus of mRNA, a polynucleotide having a poly T structure which was immobilized on the surface of latex beads was used to trap the mRNA, and then the mRNA was washed and eluted with spine column (Oligotex-dT30<Super>mRNA Purification Kit, Takara). Reverse transcription of the mRNA was conducted with a reverse transcriptase (Super Script II Reverse Transcriptase; catalogue No. 18064-014, GibcoBRL) using fluorescence-labeled nucleotides to give cDNAs that were introduced with Cy3-dUTP or Cy5-dUTP during the reverse transcription.
The labeled cDNAs were dissolved in TE buffer (10 mM Tris-HCl/1 mM EDTA, pH8.0), and the solution was dropped on the DNA chip containing the whole genes of yeast (DNA Chip Research Inc. Japan) so that the cDNAs were hybridized on the DNA chip at 65° C. for over 12 hours. The fluoresces intensity of the DNA chip was read with a scanner, and the ratio relative to the fluorescence intensity resulting from the absence of chemical substance was estimated as the following, which is shown in Tables 1 to 9: [formula]
In the Tables, “Intensity” indicated in the rightmost column is a value of the level of expressed mRNA of each gene in control cells as divided by the average level of the expressions of the whole genes.

S=C([S-])NCCNC(=S)[S-].[Zn+2] [(11), zinc N,N′-ethylenebis(dithiocarbamate)]
The level of expressed mRNA in the presence of chemical substance/The level of expressed mRNA in the absence of chemical substance (yeast gene YIL123W): 1.2
The level of expressed mRNA in the presence of chemical substance/The level of expressed mRNA in the absence of chemical substance (yeast gene YIL140W): 0.9
The level of expressed mRNA in the presence of chemical substance/ (in its absence), gene YJL070C (yeast gene YJL070C, ratio of DNA chip fluorescence intensity to that without chemical substance): 1.3
The level of expressed mRNA in the presence of chemical substance/The level of expressed mRNA in the absence of chemical substance (yeast gene YJL073W): 0.5
The level of expressed mRNA in the presence of chemical substance/The level of expressed mRNA in the absence of chemical substance (yeast gene YJL089W): 0.6
The level of expressed mRNA in the presence of chemical substance/ (ratio to absence), gene YJL096W (yeast gene YJL096W, mitochondria-located protein genes, 2 h culture with chemical): 1.2
The level of expressed mRNA in the presence of chemical substance/The level of expressed mRNA in the absence of chemical substance (yeast gene YJL116C): 2.9
The level of expressed mRNA in the presence of chemical substance/ (ratio to absence of chemical substance) (yeast gene YJL158C): 1.9
The level of expressed mRNA in the presence of chemical substance/ (in its absence), gene YJL167W (yeast gene YJL167W, ratio of DNA chip fluorescence intensity to that without chemical substance): 1.2
The level of expressed mRNA in the presence of chemical substance/ (ratio to absence), gene YJL180C (yeast gene YJL180C, mitochondria-located protein genes, 2 h culture with chemical): 1.4
The level of expressed mRNA in the presence of chemical substance/ (in its absence), gene YJL216C (yeast gene YJL216C, ratio of DNA chip fluorescence intensity to that without chemical substance): 1.1
The level of expressed mRNA in the presence of chemical substance/The level of expressed mRNA in the absence of chemical substance (yeast gene YJR004C): 0.7
The level of expressed mRNA in the presence of chemical substance/The level of expressed mRNA in the absence of chemical substance (yeast gene YJR086W): 1.0
The level of expressed mRNA in the presence of chemical substance/ (ratio to absence of chemical substance) (yeast gene YJR090C): 0.4
The level of expressed mRNA in the presence of chemical substance/The level of expressed mRNA in the absence of chemical substance (yeast gene YKL008C): 1.5
The level of expressed mRNA in the presence of chemical substance/The level of expressed mRNA in the absence of chemical substance (yeast gene YKL013C): 1.1
The level of expressed mRNA in the presence of chemical substance/The level of expressed mRNA in the absence of chemical substance (yeast gene YKL039W): 1.0
The level of expressed mRNA in the presence of chemical substance/The level of expressed mRNA in the absence of chemical substance (yeast gene YKL041W): 1.2
The level of expressed mRNA in the presence of chemical substance/The level of expressed mRNA in the absence of chemical substance (yeast gene YKL096W): 3.5
The level of expressed mRNA in the presence of chemical substance/The level of expressed mRNA in the absence of chemical substance (yeast gene YKL139W): 1.4
The level of expressed mRNA in the presence of chemical substance/ (ratio to absence of chemical substance) (yeast gene YKL164C): 1.0
The level of expressed mRNA in the presence of chemical substance/The level of expressed mRNA in the absence of chemical substance (yeast gene YKL165C): 0.3
The level of expressed mRNA in the presence of chemical substance/The level of expressed mRNA in the absence of chemical substance (yeast gene YKL193C): 1.7
The level of expressed mRNA in the presence of chemical substance/ (in its absence), gene YKR009C (yeast gene YKR009C, ratio of DNA chip fluorescence intensity to that without chemical substance): 1.2
The level of expressed mRNA in the presence of chemical substance/ (in its absence), gene YKR034W (yeast gene YKR034W, ratio of DNA chip fluorescence intensity to that without chemical substance): 0.0
The level of expressed mRNA in the presence of chemical substance/ (ratio to absence of chemical substance) (yeast gene YKR053C): 0.5
The level of expressed mRNA in the presence of chemical substance/ in its absence, gene YKR058W (yeast gene YKR058W, energy system protein genes, 2 h culture with the chemical, ratio to control without chemical): 1.5
The level of expressed mRNA in the presence of chemical substance/ (in its absence), gene YLR006C (yeast gene YLR006C, ratio of DNA chip fluorescence intensity to that without chemical substance): 1.5
The level of expressed mRNA in the presence of chemical substance/ (ratio to absence of chemical substance) (yeast gene YLR006C): 1.5
The level of expressed mRNA in the presence of chemical substance/The level of expressed mRNA in the absence of chemical substance (yeast gene YLR120C): 1.2
The level of expressed mRNA in the presence of chemical substance/The level of expressed mRNA in the absence of chemical substance (yeast gene YLR136C): 1.2
The level of expressed mRNA in the presence of chemical substance/The level of expressed mRNA in the absence of chemical substance (yeast gene YLR178C): 3.7
The level of expressed mRNA in the presence of chemical substance/The level of expressed mRNA in the absence of chemical substance (yeast gene YLR250W): 1.4
The level of expressed mRNA in the presence of chemical substance/ in its absence, gene YLR295C (yeast gene YLR295C, energy system protein genes, 2 h culture with the chemical, ratio to control without chemical): 1.3
The level of expressed mRNA in the presence of chemical substance/ (ratio to absence), gene YLR295C (yeast gene YLR295C, mitochondria-located protein genes, 2 h culture with chemical): 1.3
The level of expressed mRNA in the presence of chemical substance/The level of expressed mRNA in the absence of chemical substance (yeast gene YLR327C): 5.0
The level of expressed mRNA in the presence of chemical substance/ (in its absence), gene YLR351C (yeast gene YLR351C, ratio of DNA chip fluorescence intensity to that without chemical substance): 1.1
The level of expressed mRNA in the presence of chemical substance/The level of expressed mRNA in the absence of chemical substance (yeast gene YLR356W): 3.1
The level of expressed mRNA in the presence of chemical substance/The level of expressed mRNA in the absence of chemical substance (yeast gene YLR362W): 1.5
The level of expressed mRNA in the presence of chemical substance/ (in its absence), gene YLR375W (yeast gene YLR375W, ratio of DNA chip fluorescence intensity to that without chemical substance): 1.6
The level of expressed mRNA in the presence of chemical substance/The level of expressed mRNA in the absence of chemical substance (yeast gene YLR391W): 1.4
The level of expressed mRNA in the presence of chemical substance/The level of expressed mRNA in the absence of chemical substance (yeast gene YLR429W): 0.9
The level of expressed mRNA in the presence of chemical substance/ in its absence, gene YML129C (yeast gene YML129C, energy system protein genes, 2 h culture with the chemical, ratio to control without chemical): 1.2
The level of expressed mRNA in the presence of chemical substance/ (ratio to absence), gene YML129C (yeast gene YML129C, mitochondria-located protein genes, 2 h culture with chemical): 1.2
The level of expressed mRNA in the presence of chemical substance/The level of expressed mRNA in the absence of chemical substance (yeast gene YMR004W): 2.5
The level of expressed mRNA in the presence of chemical substance/ (ratio to absence), gene YMR023C (yeast gene YMR023C, mitochondria-located protein genes, 2 h culture with chemical): 0.8
The level of expressed mRNA in the presence of chemical substance/The level of expressed mRNA in the absence of chemical substance (yeast gene YMR094W): 1.0
The level of expressed mRNA in the presence of chemical substance/The level of expressed mRNA in the absence of chemical substance (yeast gene YMR104C): 1.1
The level of expressed mRNA in the presence of chemical substance/ (ratio to absence of chemical substance) (yeast gene YMR186W): 1.1
The level of expressed mRNA in the presence of chemical substance/The level of expressed mRNA in the absence of chemical substance (yeast gene YMR219W): 1.5
The level of expressed mRNA in the presence of chemical substance/The level of expressed mRNA in the absence of chemical substance (yeast gene YMR226C): 1.4
The level of expressed mRNA in the presence of chemical substance/ in its absence, gene YMR267W (yeast gene YMR267W, energy system protein genes, 2 h culture with the chemical, ratio to control without chemical): 1.0
The level of expressed mRNA in the presence of chemical substance/ (ratio to absence), gene YMR267W (yeast gene YMR267W, mitochondria-located protein genes, 2 h culture with chemical): 1.0
The level of expressed mRNA in the presence of chemical substance/ in its absence, gene YMR267W (yeast gene YMR267W, ratio of DNA chip fluorescence intensity to that without chemical substance): 1.0
The level of expressed mRNA in the presence of chemical substance/The level of expressed mRNA in the absence of chemical substance (yeast gene YMR275C): 1.1
The level of expressed mRNA in the presence of chemical substance/The level of expressed mRNA in the absence of chemical substance (yeast gene YMR276W): 1.9
The level of expressed mRNA in the presence of chemical substance/ (in its absence), gene YMR278W (yeast gene YMR278W, ratio of DNA chip fluorescence intensity to that without chemical substance): 1.1
